The results in this text go back to publication PMC11087268, “A folate inhibitor exploits metabolic differences in Pseudomonas aeruginosa for narrow-spectrum targeting” (Nature Microbiology, 2024).

Where “and” joins values, the source holds several entries; their conditions need not be identical. Identical values can stand only once. Like-named read-outs stand apart in the source and are kept apart here.

One data set deals with sheep red blood cells. Nature of the data set: Haemolysis. It counts as cell-based. To be noted: 1 h, vs Triton X-100 100% lysis. The procedure: Samples were treated at 37 °C with shaking for 1 h and then centrifuged. Supernatants were collected and absorbances were measured at 405 nm in a Tecan InfiniteM200 Pro microplate reader.
The next data set relates to P. aeruginosa PA14. Description: Colony-forming units counting after antibiotic treatment. Format: cell-based, Pseudomonas aeruginosa. To be noted: 2× MIC (fluorofolin 6.2, TMP 250, polymixin B 4 μg ml^−1). The procedure: P. aeruginosa PA14 overnight cultures were diluted 1:100 and grown to exponential phase (OD600 = 0.4–0.6). Cultures were diluted 1:10 and treated with antibiotic. At each time point, 150 μl of culture was removed, serial diluted 1:10 six times and plated onto LB agar plates. Plates were grown overnight at 37 °C, after which visible colonies were counted. C.f.u.s ml^−1 are reported from dilutions in which ~10–100 single colonies were visible.

Data set [1] concerns PA14 nfxB (T39P) and mexS (L46F) mutants. Description: Pyocyanin production. It counts as cell-based, Pseudomonas aeruginosa. To be noted: for Pyocyanin production (Panel E): single replicates. How it is done: […] Cell-free supernatants were […] by centrifugation, and 100 μl were added to a 96-well plate in duplicate. The integrated absorbance spectrum from 306 to 326 nm was taken in a Tecan InfiniteM200 Pro plate reader to determine pyocyanin levels in each sample. A ΔpqsA sample was used to subtract out any background values, and pyocyanin levels were normalized by the ratio of OD600 between wildtype PA14 and the mutants to account for any slight differences in growth.

For data set [2], the system named is P. aeruginosa clinical isolates. It counts as cell-based, Pseudomonas aeruginosa. To be noted: for % Growth: 50ug/mL. How it is done:
Percent growth was calculated by dividing the OD600 of fluorofolin antibiotic-treated wells by that of vehicle-only wells.

Take `CC(C)c1ccc(Cn2ccc3c4c(N)nc(NC5CC5)nc4ccc32)cc1` [SCH-79797]: the “% Hemolysis, Mean” value in the data set with sheep red blood cells (0.78125 ug/mL) was 0.2789%; in the data set with sheep red blood cells (1.5625 ug/mL), -0.7082%; with sheep red blood cells (3.125 ug/mL) it was -0.9423%; in the data set on sheep red blood cells (6.25 ug/mL), 0.9543%; in the data set on sheep red blood cells (12.5 ug/mL), 20.9447%; in the data set on sheep red blood cells (25 ug/mL) it was 53.6334%. Further, the “% Hemolysis, Mean” value in the data set on sheep red blood cells (50 ug/mL) is reported as 64.7041%.
Turning to polymixin B, the “PA14 CFU/mL, Mean” value in the data set with P. aeruginosa PA14 (Time 0 h) is listed as 197000 CFU/mL; in the data set with P. aeruginosa PA14 (Time 1 h), 81.6667 CFU/mL; in the data set on P. aeruginosa PA14 (Time 2 h), 17.7778 CFU/mL; with P. aeruginosa PA14 (Time 4 h) it was 20 CFU/mL.
For `CCCCCCCc1[nH]c2ccccc2c(=O)c1O` [PQS, Pseudomonas quinolone signal], the “Pyocyanin production (Panel E)” value in data set [1] (PA14, + 1 uM PQS) was 15.8282 and 16.194 and 15.1165; in data set [1] (PqsA KO, + 1 uM PQS), 17.5069 and 16.392 and 16.1857; in data set [1] (mexS Mutant, + 1 uM PQS), 10.0838 and 9.877 and 13.1798; in data set [1] (nfxB mutant, + 1 uM PQS) it was 8.219 and 6.016 and 7.118. Also, the “pyocyanin production of nfxB and mexS mutants” value in data set [1] (PQS 1 μM added at inoculation) is “partially rescued”.
As to `C[C@@H](O)[C@H]1C(=O)N2C(C(=O)O)=C(S[C@@H]3CN[C@H](C(=O)N(C)C)C3)[C@H](C)[C@H]12` [meropenem], in data set [2] (77 P. aeruginosa clinical isolates (55 CDC/FDA, 22 blood), 50 μg ml^−1, growth inhibition >80% = sensitive), the clinical isolates resistant was 74.0%. The “% Growth” value in data set [2] (Isolate# 1) came out at 113.227%; in data set [2] (Isolate# 2), 104.859%; in data set [2] (Isolate# 3), 93.4328%; in data set [2] (Isolate# 4), 45.5006%; in data set [2] (Isolate# 5) it was 93.4656%; in data set [2] (Isolate# 6), 77.5947%. The “% Growth” value in data set [2] (Isolate# 7) came to 101.901%; in data set [2] (Isolate# 8), 45.9194%; in data set [2] (Isolate# 9), 53.5808%; in data set [2] (Isolate# 10) it was 5.367%; in data set [2] (Isolate# 11) it was 99.5105%; in data set [2] (Isolate# 12) it was 98.7175%. For the same compound, the “% Growth” value in data set [2] (Isolate# 13) stood at 37.9571%; in data set [2] (Isolate# 14), 104.583%; in data set [2] (Isolate# 15), 111.823%; in data set [2] (Isolate# 16) it was 82.8716%; in data set [2] (Isolate# 17), 101.338%; in data set [2] (Isolate# 18), 69.0131%. In addition, the “% Growth” value in data set [2] (Isolate# 19) is 139.474%; in data set [2] (Isolate# 20) it was 102.365%; in data set [2] (Isolate# 21), 105.977%; in data set [2] (Isolate# 22), 100%; in data set [2] (Isolate# 23) it was 99.084%; in data set [2] (Isolate# 24), 101.66%. In addition, the “% Growth” value in data set [2] (Isolate# 25) is on record as 0.3832%; in data set [2] (Isolate# 26) it was 108.084%; in data set [2] (Isolate# 27) it was 90.2732%; in data set [2] (Isolate# 28) it was 50.4713%; in data set [2] (Isolate# 29) it was 81.8075%; in data set [2] (Isolate# 30) it was 25.5041%. Further, the “% Growth” value is recorded as 2.581% in data set [2] (Isolate# 31); 49.1417% in data set [2] (Isolate# 32); 0% in data set [2] (Isolate# 33); 7.796% in data set [2] (Isolate# 34); 0.5421% in data set [2] (Isolate# 35); 34.6796% in data set [2] (Isolate# 36). Besides, the “% Growth” value in data set [2] (Isolate# 37) is listed as 97.561%; in data set [2] (Isolate# 38), 159.815%; in data set [2] (Isolate# 39), 38.9532%; in data set [2] (Isolate# 40), 99.0807%; in data set [2] (Isolate# 41) it was 94.6179%; in data set [2] (Isolate# 42), 57.1194%. The “% Growth” value in data set [2] (Isolate# 43) was 47.1218%; in data set [2] (Isolate# 44), 108.201%; in data set [2] (Isolate# 45) it was 95.4718%; in data set [2] (Isolate# 46), 98.3594%; in data set [2] (Isolate# 47), 114.345%; in data set [2] (Isolate# 48), 88.9096%. In addition, the “% Growth” value in data set [2] (Isolate# 49) worked out at 96.2021%; in data set [2] (Isolate# 50) it was 122.491%; in data set [2] (Isolate# 51), 46.991%; in data set [2] (Isolate# 52), 2.293%; in data set [2] (Isolate# 53) it was 3.543%; in data set [2] (Isolate# 54) it was 4.738%. Besides, the “% Growth” value in data set [2] (Isolate# 55) was determined as 0%; in data set [2] (Isolate# 56), 121.285%; in data set [2] (Isolate# 57) it was 61.1775%; in data set [2] (Isolate# 58) it was 74.7799%; in data set [2] (Isolate# 59) it was 114.529%; in data set [2] (Isolate# 60), 144.06%. For the same compound, the “% Growth” value in data set [2] (Isolate# 61) stood at 63.8412%; in data set [2] (Isolate# 62), 95.6203%; in data set [2] (Isolate# 63), 0%; in data set [2] (Isolate# 64), 0.5899%; in data set [2] (Isolate# 65), 0.9518%; in data set [2] (Isolate# 66), 19.8024%. Further, the “% Growth” value is recorded as 10.308% in data set [2] (Isolate# 67); 0.6936% in data set [2] (Isolate# 68); 5.952% in data set [2] (Isolate# 69); 25.3374% in data set [2] (Isolate# 70); 98.2336% in data set [2] (Isolate# 71); 90.6634% in data set [2] (Isolate# 72). The “% Growth” value was found to be 0% in data set [2] (Isolate# 73); 128.066% in data set [2] (Isolate# 74); 2.406% in data set [2] (Isolate# 75); 11.0259% in data set [2] (Isolate# 76); 28.4071% in data set [2] (Isolate# 77).
